The values that follow come from paper PMC4891657, “Orexin 2 Receptor Antagonism is Sufficient to Promote NREM and REM Sleep from Mouse to Man” (Scientific Reports, 2016).

Values joined by “and” are separate entries in the source; they are usually repeats but may differ in a detail not shown here. Equal entries are not always repeated. “Also recorded” adds a separate entry of the source.

The test system of series [1] is sleep/wake stages. As to the kind of experiment: Polysomnography in telemetered wild-type and OX2R knockout mice. Type of series: in vivo, mouse. To be noted: 30 mg/kg oral.
Description: Polysomnography (PSG) responses to MK-1064 (30 mg/kg) were evaluated following oral administration during the late active phase (administered at Zeitgeber time [ZT] 20:00) either in wild-type or OX2R knockout telemetered mice.
(a) The mean time spent in active wake, light sleep (LS), SWS, and REM sleep during 30-min intervals was determined in wild-type (left panel; n = 5) and OX2R knockout (right panel; n = 7) mice following administration of MK-1064 30 mg/kg (open circles) relative to vehicle (20% vitamin E TPGS, orally; closed circles) during the late active phase (ZT: 20:00). Time points at which significant differences exist between vehicle and MK-1064 responses are indicated by grey vertical lines (*, **, ***p < 0.05, 0.01, 0.001, respectively; linear mixed-effects model for repeated measures).
In male wild-type and Hcrtr1 and 2 homozygous, double knockout mice (Taconic Farms, Germantown, NY), MK-1064 or vehicle was administered during the late active phase (ZT: 20:00, 4 hours before lights on). The effect of compound treatment was assessed using a counterbalanced crossover design in which all animals were alternately treated with drug and vehicle daily for 5 consecutive days with a 2-day intervening washout period. In both mice and rats, the mean time in active wake, LS, SWS and REM sleep was determined for each 30-minute interval. The level of significance for the differences between mean time spent in each stage between the vehicle- and compound-treated groups was determined by a linear mixed-effects model for repeated measures applied t-test, and mean within-subject change relative to vehicle over 2 hours following dosing was analyzed using within-subject ANOVA to determine main effects and one sample t-test to identify significant changes relative to vehicle.
Series [2] concerns sleep/wake stages. As to the kind of experiment: Polysomnography in telemetered Sprague-Dawley rats. It is filed as in vivo, rat. How it is done: MK-1064 promoted both REM and NREM sleep in telemetered rats in a time-of-day-dependent manner.
Figure 2 MK-1064 dose-dependently promotes both NREM and REM sleep during the active phase in rats. Mean time in active wake, light sleep (LS), SWS, and REM sleep in adult Sprague-Dawley rats monitored for 2 hours post-dose. MK-1064 (5, 10, or 20 mg/kg) or vehicle (20% vitamin E TPGS, orally) was administered in a balanced crossover design such that each animal received drug and vehicle treatments (7 consecutive days). […] Mean within-subject change relative to vehicle ± SEM is shown (*, ***p < 0.05 < 0.001, respectively; one sample t-test for repeated measures compared with vehicle).
The mean time spent in sleep stages was determined in radio-telemetry–implanted mice, rats, and dogs, as described previously. Continuous PSG recordings were performed following oral MK-1064 or vehicle (20% vitamin E d-alpha tocopheryl polyethylene glycol 1000 succinate [TPGS]) administration. In rodents, electrocorticogram (ECoG) and electromyogram (EMG) and locomotor activity measured via radio-telemetry were scored in 10 second epochs to define light sleep (LS; no movement, moderate EMG tone, theta with <50% delta ECoG [0.5–4 Hz]), slow wave sleep (SWS; no gross movement, reduced EMG, >50% delta ECoG) and rapid eye movement sleep (REM; no movement, little to no EMG activity, primarily theta ECoG [4–7 Hz] activity)[42]. Scored data were then grouped and compiled according to condition (vehicle or compound treatment) averaged over the indicated times (30 minutes or 2 hours) and analyzed statistically as previously described[1][14][40][42] (see below). Canine sleep was scored similarly except that electrooculogram (EOG) recordings were used to define and distinguish REM sleep (high frequency EOG, no locomotor, little to no EMG activity, theta ECoG) from non-REM I (NREM I; little to no EOG activity, no movement, moderate EMG tone, <50% delta ECoG) and NREM II sleep (little to no EOG activity, no gross movement, reduced EMG, >50% delta ECoG), and analyzed as described previously.
In adult male Sprague-Dawley rats (600 g, Taconic Farms, Germantown, NY), MK-1064 (5, 10, or 20 mg/kg) or vehicle was administered orally in a balanced crossover design such that each subject received drug and vehicle treatments (7 consecutive days). […] Data were analyzed using within-subject ANOVA to determine main effects and one sample t-test to compare with vehicle.

Series [3] relates to cataplexy. Kind of series: Food-elicited cataplexy test (FECT). Conditions: dogs, 20 mg/kg, 1 hour after administration. Type of series: in vivo, dog. On the procedure: A standard measure for quantifying narcolepsy with cataplexy in dogs is the food-elicited cataplexy test (FECT).
The FECT was performed essentially as described previously. After a 2-day vehicle run-in period, female dogs (n = 8; Marshall Farms) were treated with MK-1064 (20 mg/kg) or vehicle in a 1-day vehicle x 2-day drug crossover design. Daytime FECTs[32][43][44] with simultaneous video and electrocorticography (ECoG), electromyography (EMG), and electrooculography (EOG) recordings were conducted 1 hour post-dose. Following release into the test room, dogs were remotely monitored while consuming 10 evenly spaced, approximately 1-inch[2] balls of wet dog food (Pedigree® chunk beef). Video and ECoG/EOG/EMG recordings were evaluated for any signs of cataplexy (e.g., collapse, EMG attenuation, sudden-onset REM sleep; see Kushida et al.[43]) and the time needed to consume all 10 balls of food.

Series [4] deals with T1, OX2R (Homo sapiens, UniProt O43614).
T1 sequence (O43614 1-444): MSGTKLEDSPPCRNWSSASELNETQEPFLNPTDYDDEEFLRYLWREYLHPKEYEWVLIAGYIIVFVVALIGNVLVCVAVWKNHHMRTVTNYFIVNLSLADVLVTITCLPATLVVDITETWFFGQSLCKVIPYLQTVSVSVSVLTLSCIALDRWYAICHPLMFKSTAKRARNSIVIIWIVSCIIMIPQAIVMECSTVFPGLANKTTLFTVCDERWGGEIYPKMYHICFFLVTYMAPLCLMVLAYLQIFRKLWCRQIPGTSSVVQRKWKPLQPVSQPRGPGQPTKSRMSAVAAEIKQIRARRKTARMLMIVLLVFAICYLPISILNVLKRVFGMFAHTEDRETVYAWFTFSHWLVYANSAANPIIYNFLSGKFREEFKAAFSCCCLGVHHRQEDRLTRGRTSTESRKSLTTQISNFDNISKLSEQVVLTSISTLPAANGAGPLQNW
Type of series: in vivo, transgenic rats expressing human Hcrtr2. Also noted: from tissue; host or cells: brain tissue lysate of male transgenic rats expressing human Hcrtr2 cDNA under the rat enolase promoter. From the text: OX2R occupancy in transgenic rats expressing human Hcrtr2 cDNA via the rat enolase promoter in radioligand-binding displacement assays have been described previously. […] Normalized curves where the maximum occupancy value was defined as 100% relative to maximal observed plasma were constructed by fitting data to a one-site binding (hyperbola) curve (GraphPad Prism® v. 6.04, San Diego, CA, USA).

Where [5] appears, read: wild-type mice, ZT 20:00, vs vehicle.
Setting [6] is: rats, 2 hours following treatment vs vehicle.

Take `COc1ccc(CNC(=O)c2cc(-c3cncc(Cl)c3)cnc2-c2ccccn2)nc1OC` [MK-1064, 5″-chloro-N-[(5,6-dimethoxypyridin-2-yl)methyl]-2,2′:5′, 3″-terpyridine-3′-carbo xamide]: the “changes in wake, SWS and REM in OX2R knockout mice” value in series [1] (OX2R knockout mice, ZT 20:00) is on record as “absent”. Also, the “time following treatment with active wake reduction and significant increases in SWS and REM” value in series [1] (wild-type mice, ZT 20:00) is given as “up to 3.5 hours”. In series [1] (setting [5]), the “REM quantitated over 2 hours” value is on record as “trend toward an increase”; the “changes in wake and SWS quantitated over 2 hours” value is “reached significance”. Further, the “sleep stage changes, late active phase administration” value in series [2] (ZT 23:00, 1 hour prior to inactive period, 20 mg/kg oral) is “only SWS reached significance”. Besides, the “active wake during the 2 hours following administration” value in series [2] (mid-active phase (ZT 17:00), 5, 10 and 20 mg/kg oral, 20 mg/kg significant p < 0.05) is “dose dependently attenuated active wake”. Besides, the “SWS during the 2 hours following administration” value in series [2] (mid-active phase, 20 mg/kg oral) was “increases in SWS”. Also, in series [2] (mid-active phase, 10 and 20 mg/kg oral), the “REM sleep during the 2 hours following administration” value is recorded as “increases in REM sleep”. The “cataplectic episodes in FECT” value in series [3] is “no cataplectic episodes; also recorded: cataplexy was not observed”. In series [3] (not significantly different from vehicle), the “mean time to complete the FECT” value turned out to be 37.8 s. Further, the “OX2R occupancy at which significant reductions in active wake were observed” value in series [4] (in vivo) was 94% and 97%. For the same compound, in series [4] (setting [6]), the “OX2R occupancy at which changes in REM sleep occurred” value is on record as 94%, the “OX2R occupancy at which no significant reduction in active wake was observed” value turned out to be 89% and the “OX2R occupancy at which significant SWS changes were induced” value is 97%.
